Measurements taken from US9695155B2, “Herbicidal substituted pyrimidinyloxy benzene compounds” (E. I. DU PONT DE NEMOURS AND COMPANY, priority 2013, dated 2017).

What was measured:
arrowleaf sida [1] = experiment: Test E postemergence; type: in vivo, Sida rhombifolia; conditions: Sida rhombifolia, post-emergence, read-out: Plant response rating, Arrowleaf Sida
Outline: (§1)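 Compound in a non-phytotoxic solvent mixture with surfactant was applied preemergence to seeds in silt loam soil, or postemergence to plants 2 to 18 cm tall grown in peat-based potting medium. Plants were kept in a greenhouse for 14 to 21 days, then rated visually against untreated controls on a 0 (no effect) to 100 (complete control) scale.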

field bindweed = experiment: Test E preemergence; type: in vivo, Convolvulus arvensis; conditions: for Field Bindweed plant response rating: scale 0 to 100 (0 no effect, 100 complete control); for Plant response rating, Field Bindweed: scale 0 to 100, 0 no effect, 100 complete control
Outline: as §1

arrowleaf sida [2] = experiment: Test E preemergence; type: in vivo, Sida rhombifolia; conditions: for Arrowleaf Sida plant response rating: scale 0 to 100 (0 no effect, 100 complete control); for Plant response rating, Arrowleaf Sida: scale 0 to 100, 0 no effect, 100 complete control
Outline: as §1

goosegrass = experiment: Test E preemergence; type: in vivo, Eleusine indica; conditions: for Goosegrass plant response rating: scale 0 to 100 (0 no effect, 100 complete control); for Plant response rating, Goosegrass: scale 0 to 100, 0 no effect, 100 complete control
Outline: as §1

ragweed = experiment: Test E preemergence; type: in vivo, Ambrosia elatior; conditions: for Ragweed plant response rating: scale 0 to 100 (0 no effect, 100 complete control); for Plant response rating, Ragweed: scale 0 to 100, 0 no effect, 100 complete control
Outline: as §1

soybean = experiment: Test E preemergence; type: in vivo, Glycine max; conditions: for Soybean plant response rating: scale 0 to 100 (0 no effect, 100 complete control); for Plant response rating, Soybean: scale 0 to 100, 0 no effect, 100 complete control
Outline: as §1

wild poinsettia = experiment: Test E postemergence; type: in vivo, Euphorbia heterophylla; conditions: Euphorbia heterophylla, post-emergence, read-out: Plant response rating, Poinsettia, Wild
Outline: as §1

lambsquarters = experiment: Test E preemergence; type: in vivo, Chenopodium album; conditions: for Lambsquarters plant response rating: scale 0 to 100 (0 no effect, 100 complete control); for Plant response rating, Lambsquarters: scale 0 to 100, 0 no effect, 100 complete control
Outline: as §1

velvetleaf = experiment: Test E preemergence; type: in vivo, Abutilon theophrasti; conditions: for Velvetleaf plant response rating: scale 0 to 100 (0 no effect, 100 complete control); for Plant response rating, Velvetleaf: scale 0 to 100, 0 no effect, 100 complete control
Outline: as §1

corn = experiment: Test E preemergence; type: in vivo, Zea mays; conditions: for Corn plant response rating: scale 0 to 100 (0 no effect, 100 complete control); for Plant response rating, Corn: scale 0 to 100, 0 no effect, 100 complete control
Outline: as §1

barnyardgrass = experiment: Test E postemergence; type: in vivo, Echinochloa crus-galli; conditions: Echinochloa crus-galli, post-emergence, read-out: Plant response rating, Barnyardgrass
Outline: as §1

surinam grass = experiment: Test E preemergence; type: in vivo, Brachiaria decumbens; conditions: for Surinam Grass plant response rating: scale 0 to 100 (0 no effect, 100 complete control); for Plant response rating, Surinam Grass: scale 0 to 100, 0 no effect, 100 complete control
Outline: as §1

Italian ryegrass = experiment: Test E postemergence; type: in vivo, Lolium multiflorum; conditions: Lolium multiflorum, post-emergence, read-out: Plant response rating, Ryegrass, Italian
Outline: as §1

waterhemp = experiment: Test E preemergence; type: in vivo, Amaranthus rudis; conditions: for Waterhemp plant response rating: scale 0 to 100 (0 no effect, 100 complete control); for Plant response rating, Waterhemp: scale 0 to 100, 0 no effect, 100 complete control
Outline: as §1

Brazilian crabgrass = experiment: Test E postemergence; type: in vivo, Digitaria horizontalis; conditions: Digitaria horizontalis, post-emergence, read-out: Plant response rating, Crabgrass, Brazil
Outline: as §1

kochia = experiment: Test E preemergence; type: in vivo, Kochia scoparia; conditions: for Kochia plant response rating: scale 0 to 100 (0 no effect, 100 complete control); for Plant response rating, Kochia: scale 0 to 100, 0 no effect, 100 complete control
Outline: as §1

giant foxtail = experiment: Test E preemergence; type: in vivo, Setaria faberii; conditions: for Foxtail, Giant plant response rating: scale 0 to 100 (0 no effect, 100 complete control); for Plant response rating, Foxtail, Giant: scale 0 to 100, 0 no effect, 100 complete control
Outline: as §1

[3] = Postemergence, 31 g ai/ha, scale 0 to 100
[4] = Postemergence, 62 g ai/ha, scale 0 to 100
[5] = Postemergence, 125 g ai/ha, scale 0 to 100
[6] = postemergence, 16 g ai/ha, scale 0 to 100, 0 no effect, 100 complete control

SMILES: N#Cc1cccc(Oc2ncc(Cl)cn2)c1-n1cc(Br)cn1 [Compound 52, 2-(4-bromo-1H-pyrazol-1-yl)-3-[(5-chloro-2-pyrimidinyl)oxy]benzonitrile]
- pest or weed control at 31 g/ha (arrowleaf sida [1]; [3]): 60%
- pest or weed control at 62 g/ha (arrowleaf sida [1]; [4]): 70%
- pest or weed control at 125 g/ha (arrowleaf sida [1]; [5]): 70%
- pest or weed control at 16 g/ha (arrowleaf sida [1]; [6]): 50%
- Field Bindweed plant response rating (field bindweed; 16 g ai/ha): 0
- Field Bindweed plant response rating (field bindweed; 31 g ai/ha): 0
- Field Bindweed plant response rating (field bindweed; 62 g ai/ha): 25
- Plant response rating, Field Bindweed (field bindweed; 125 g ai/ha): 80
- Plant response rating, Field Bindweed (field bindweed; 250 g ai/ha): 95
- Arrowleaf Sida plant response rating (arrowleaf sida [2]; 16 g ai/ha, preemergence): 35
- Arrowleaf Sida plant response rating (arrowleaf sida [2]; 31 g ai/ha, preemergence): 40
- Plant response rating, Arrowleaf Sida (arrowleaf sida [2]; Preemergence, 62 g ai/ha): 60
- Plant response rating, Arrowleaf Sida (arrowleaf sida [2]; preemergence, 125 g ai/ha): 80
- Plant response rating, Arrowleaf Sida (arrowleaf sida [2]; preemergence, 250 g ai/ha): 100
- Goosegrass plant response rating (goosegrass; 16 g ai/ha): 5
- Goosegrass plant response rating (goosegrass; 31 g ai/ha): 50
- Goosegrass plant response rating (goosegrass; 62 g ai/ha): 65
- Plant response rating, Goosegrass (goosegrass; 125 g ai/ha): 98
- Plant response rating, Goosegrass (goosegrass; 250 g ai/ha): 100
- Ragweed plant response rating (ragweed; 16 g ai/ha): 0
- Ragweed plant response rating (ragweed; 31 g ai/ha): 0
- Ragweed plant response rating (ragweed; 62 g ai/ha): 0
- Plant response rating, Ragweed (ragweed; 125 g ai/ha): 5
- Plant response rating, Ragweed (ragweed; 250 g ai/ha): 70
- Soybean plant response rating (soybean; 16 g ai/ha): 0
- Soybean plant response rating (soybean; 31 g ai/ha): 0
- Soybean plant response rating (soybean; 62 g ai/ha): 0
- Plant response rating, Soybean (soybean; 125 g ai/ha): 60
- Plant response rating, Soybean (soybean; 250 g ai/ha): 90
- pest or weed control at 31 g/ha (wild poinsettia; [3]): 40%
- pest or weed control at 62 g/ha (wild poinsettia; [4]): 50%
- pest or weed control at 125 g/ha (wild poinsettia; [5]): 70%
- pest or weed control at 16 g/ha (wild poinsettia; [6]): 45%
- Lambsquarters plant response rating (lambsquarters; 16 g ai/ha): 0
- Lambsquarters plant response rating (lambsquarters; 31 g ai/ha): 75
- Lambsquarters plant response rating (lambsquarters; 62 g ai/ha): 98
- Plant response rating, Lambsquarters (lambsquarters; 125 g ai/ha): 98
- Plant response rating, Lambsquarters (lambsquarters; 250 g ai/ha): 100
- Velvetleaf plant response rating (velvetleaf; 16 g ai/ha): 0
- Velvetleaf plant response rating (velvetleaf; 31 g ai/ha): 0
- Velvetleaf plant response rating (velvetleaf; 62 g ai/ha): 75
- Plant response rating, Velvetleaf (velvetleaf; 125 g ai/ha): 85
- Plant response rating, Velvetleaf (velvetleaf; 250 g ai/ha): 90
- Corn plant response rating (corn; 16 g ai/ha): 0
- Corn plant response rating (corn; 31 g ai/ha): 0
- Corn plant response rating (corn; 62 g ai/ha): 0
- Plant response rating, Corn (corn; 125 g ai/ha): 0
- Plant response rating, Corn (corn; 250 g ai/ha): 40
- pest or weed control at 31 g/ha (barnyardgrass; [3]): 10%
- pest or weed control at 62 g/ha (barnyardgrass; [4]): 20%
- pest or weed control at 125 g/ha (barnyardgrass; [5]): 30%
- pest or weed control at 16 g/ha (barnyardgrass; [6]): 5%
- Surinam Grass plant response rating (surinam grass; 16 g ai/ha): 0
- Surinam Grass plant response rating (surinam grass; 31 g ai/ha): 0
- Surinam Grass plant response rating (surinam grass; 62 g ai/ha): 0
- Plant response rating, Surinam Grass (surinam grass; 125 g ai/ha): 10
- Plant response rating, Surinam Grass (surinam grass; 250 g ai/ha): 10
- pest or weed control at 31 g/ha (Italian ryegrass; [3]): 0%
- pest or weed control at 62 g/ha (Italian ryegrass; [4]): 0%
- pest or weed control at 125 g/ha (Italian ryegrass; [5]): 10%
- pest or weed control at 16 g/ha (Italian ryegrass; [6]): 0%
- Waterhemp plant response rating (waterhemp; 16 g ai/ha): 80
- Waterhemp plant response rating (waterhemp; 31 g ai/ha): 100
- Waterhemp plant response rating (waterhemp; 62 g ai/ha): 100
- Plant response rating, Waterhemp (waterhemp; 125 g ai/ha): 100
- Plant response rating, Waterhemp (waterhemp; 250 g ai/ha): 100
- pest or weed control at 31 g/ha (Brazilian crabgrass; [3]): 30%
- pest or weed control at 62 g/ha (Brazilian crabgrass; [4]): 30%
- pest or weed control at 125 g/ha (Brazilian crabgrass; [5]): 40%
- pest or weed control at 16 g/ha (Brazilian crabgrass; [6]): 15%
- Kochia plant response rating (kochia; 31 g ai/ha): 25
- Kochia plant response rating (kochia; 62 g ai/ha): 65
- Plant response rating, Kochia (kochia; 125 g ai/ha): 100
- Plant response rating, Kochia (kochia; 250 g ai/ha): 100
- Foxtail, Giant plant response rating (giant foxtail; 16 g ai/ha): 0
- Foxtail, Giant plant response rating (giant foxtail; 31 g ai/ha): 70
- Foxtail, Giant plant response rating (giant foxtail; 62 g ai/ha): 70
- Plant response rating, Foxtail, Giant (giant foxtail; 125 g ai/ha): 100
- Plant response rating, Foxtail, Giant (giant foxtail; 250 g ai/ha): 100
